Experimental data: article PMC8654920, “PET imaging of brain aromatase in humans and rhesus monkeys by ^11C-labeled cetrozole analogs” (Scientific Reports, 2021)

molecular target: T1, aromatase (Callithrix jacchus, UniProt Q95M61); test: inhibition of [[…]-14C]testosterone conversion by placental microsomes, TLC autoradiography; format: biochemical
T1 construct: gene CYP19A1; microsomal fraction of marmoset placenta
T1 sequence (Q95M61 1-503): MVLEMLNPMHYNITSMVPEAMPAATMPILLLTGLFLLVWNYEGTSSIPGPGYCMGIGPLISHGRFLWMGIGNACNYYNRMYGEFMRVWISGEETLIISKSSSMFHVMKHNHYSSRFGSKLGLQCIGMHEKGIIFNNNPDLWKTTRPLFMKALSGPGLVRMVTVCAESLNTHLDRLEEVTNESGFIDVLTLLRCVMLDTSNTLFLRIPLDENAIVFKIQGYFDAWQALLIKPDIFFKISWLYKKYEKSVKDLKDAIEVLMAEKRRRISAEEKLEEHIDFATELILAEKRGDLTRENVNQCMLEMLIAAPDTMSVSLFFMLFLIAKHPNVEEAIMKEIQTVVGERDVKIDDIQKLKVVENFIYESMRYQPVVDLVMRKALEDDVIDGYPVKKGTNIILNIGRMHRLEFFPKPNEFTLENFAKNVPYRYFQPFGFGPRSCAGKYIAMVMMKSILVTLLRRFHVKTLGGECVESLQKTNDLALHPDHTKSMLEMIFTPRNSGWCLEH

Row | IC50 [nM] | SMILES
1 | 0.68 | Cc1ccc(CN(c2ccc(C#N)cc2)n2cncn2)cc1 [iso-cetrozole]
2 | 0.73 | Cc1ccc(CN(c2ccc([N+](=O)[O-])cc2)n2cnnc2)cc1 [nitro-cetrozole]
3 | 3.5 | Cc1cccc(CN(c2ccc(C#N)cc2)n2cnnc2)c1 [meta-cetrozole]
4 | 0.98 | Cc1ccc(CN(c2ccc(C#N)cc2)n2cnnc2)cc1 [cetrozole]
